Patent publication US9795140B2, “Molecules having pesticidal utility, and intermediates, compositions, and processes, related thereto” (priority 2015, dated 2017)

Columns and labels:
Assay type in all cases: in vivo
[1] = test system: Beet Armyworm (Spodoptera exigua, LAPHEG); assay: Bioassay on Beet Armyworm (BAW), 128-well diet tray assay; settings: 168 h, 50 μg/cm^2 on artificial diet, second instar larvae, 25° C., five to seven days, average of eight wells, read-out: BAW % Control (or Mortality) rating
How it was run: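 Diet tray, 8 wells/compound; 50 μg/cm^2 applied to diet surface (90:10 acetone-water), dried. 1–5 L2 larvae/well; 25° C., 14:10 L:D, 5–7 d. Read-out: % mortality, mean of 8 wells.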

[2] = test system: Cabbage Looper (Trichoplusia ni, TRIPNI); assay: Bioassay on Cabbage Looper (CL), 128-well diet tray assay; settings: 168 h, 50 μg/cm^2 on artificial diet, second instar larvae, 25° C., five to seven days, average of eight wells, read-out: CL % Control (or Mortality) rating
How it was run: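 Percent larval mortality, averaged across eight replicate wells, was scored after 5–7 days at 25 °C with a 14:10 photoperiod. Each well held 1 mL diet surface-treated at 50 μg/cm^2 with test molecule from a 90:10 acetone-water solution, then dried. Wells were infested with one to five second-instar cabbage loopers.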

[3] = test system: Yellow Fever Mosquito (Aedes aegypti, AEDSAE); assay: Bioassay on Yellow Fever Mosquito (YFM) larvae, 96-well plate; settings: about 1 day-old larvae, room temperature, 3 days, scored on mortality
How it was run: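 Each well was scored for mortality after 3 days at room temperature under a non-evaporative lid. Test molecules came from DMSO masters (4000 ppm stock) diluted with water/acetone 90:10 and dispensed into six replicate plates, which were then infested with roughly 1-day-old larvae in liver-powder water.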

Structure (SMILES)	mortality at 50 µg/cm2 [1]	mortality at 50 µg/cm2 [2]	YFM % Control (or Mortality) rating [3]
C[C@H](C[S+]([O-])CC(F)(F)F)NC(=O)c1cc(NC(=O)C2C(c3cc(Cl)cc(Cl)c3)C2(Cl)Cl)ccc1Cl (stereo in doubt) [PF7, trans-2-Chloro-5-(2,2-dichloro-3-(3,5-dichlorophenyl)cyclopropane-1-carboxamido)-N-((2R)-1-((2,2,2-trifluoroethyl)sulfinyl)propan-2-yl)benzamide]	50 to 100%	50 to 100%	A (80-100)
O=C(NCCF)c1cc(NC(=O)[C@H]2[C@H](c3ccc(F)c(Cl)c3)C2(Cl)Cl)ccc1Cl (relative stereo) [F104, trans-2-Chloro-5-(2,2-dichloro-3-(3-chloro-4-fluorophenyl)cyclopropane-1-carboxamido)-N-(2-fluoroethyl)benzamide]	50 to 100%	50 to 100%	A (80-100)
O=C(NCC(F)(F)F)c1cc(NC(=O)[C@H]2[C@H](c3ccc(F)c(C(F)(F)F)c3)C2(Cl)Cl)ccc1Cl (relative stereo) [F119, 2-Chloro-5-(trans-2,2-dichloro-3-(4-fluoro-3-(trifluoromethyl)phenyl)cyclopropane-1-carboxamido)-N-(2,2,2-trifluoroethyl)benzamide]	50 to 100%	50 to 100%	A (80-100)
O=C(NCC(F)(F)F)c1cc(NC(=O)[C@H]2[C@H](c3ccc(C(F)F)c(Cl)c3)C2(Cl)Cl)ccc1Cl (relative stereo) [F132, 2-Chloro-5-(trans-2,2-dichloro-3-(3-chloro-4-(difluoromethyl)phenyl)cyclopropane-1-carboxamido)-N-(2,2,2-trifluoroethyl)benzamide]	50 to 100%	50 to 100%	A (80-100)
COc1c(Cl)cc([C@H]2[C@H](C(=O)Nc3ccc(Cl)c(C(=O)NCCC(F)(F)F)c3)C2(Cl)Cl)cc1Cl (relative stereo) [F88, trans-2-Chloro-5-(2,2-dichloro-3-(3,5-dichloro-4-methoxyphenyl)cyclopropane-1-carboxamido)-N-(3,3,3-trifluoropropyl)benzamide]	50 to 100%	50 to 100%	B (More than 0-Less than 80)
CN(CC1CC1)C(=O)c1cc(NC(=O)[C@H]2[C@H](c3cc(Cl)cc(Cl)c3)C2(Cl)Cl)ccc1Cl (relative stereo) [F69, trans-2-Chloro-N-(cyclopropylmethyl)-5-(2,2-dichloro-3-(3,5-dichlorophenyl)cyclopropane-1-carboxamido)-N-methylbenzamide]	50 to 100%	50 to 100%	D (No activity noticed in this bioassay)
CCCNC(=O)c1cc(NC(=O)[C@H]2[C@H](c3ccc(F)c(Cl)c3)C2(Cl)Cl)ccc1Cl (relative stereo) [F106, trans-2-Chloro-5-(2,2-dichloro-3-(3-chloro-4-fluorophenyl)cyclopropane-1-carboxamido)-N-propylbenzamide]	50 to 100%	50 to 100%	A (80-100)
O=C(NCC(F)(F)F)c1cc(NC(=O)[C@H]2[C@H](c3cc(Br)cc(C(F)(F)F)c3)C2(Cl)Cl)ccc1Cl (relative stereo) [F124, 5-(trans-3-(3-Bromo-5-(trifluoromethyl)phenyl)-2,2-dichlorocyclopropane-1-carboxamido)-2-chloro-N-(2,2,2-trifluoroethyl)benzamide]	50 to 100%	50 to 100%	A (80-100)
O=C(NCC(F)(F)F)c1cc(NC(=O)[C@H]2[C@H](c3ccc(Cl)c(C(F)F)c3)C2(Cl)Cl)ccc1Cl (relative stereo) [F129, 2-Chloro-5-(trans-2,2-dichloro-3-(4-chloro-3-(difluoromethyl)phenyl)cyclopropane-1-carboxamido)-N-(2,2,2-trifluoroethyl)benzamide]	50 to 100%	50 to 100%	A (80-100)
O=C(NCCn1cccn1)c1cc(NC(=O)[C@H]2[C@H](c3cc(Cl)cc(Cl)c3)C2(Cl)Cl)ccc1Cl (relative stereo) [PF13, trans-N-(2-(1H-Pyrazol-1-yl)ethyl)-2-chloro-5-(2,2-dichloro-3-(3,5-dichlorophenyl)cyclopropane-1-carboxamido)benzamide]	50 to 100%	50 to 100%	A (80-100)
O=C(NCCCC(F)(F)F)c1cc(NC(=O)[C@H]2[C@H](c3cc(Cl)cc(Cl)c3)C2(Cl)Cl)ccc1Cl (relative stereo) [F72, trans-2-Chloro-5-(2,2-dichloro-3-(3,5-dichlorophenyl)cyclopropane-1-carboxamido)-N-(4,4,4-trifluorobutyl)benzamide]	50 to 100%	50 to 100%	A (80-100)
COc1c(F)cc(C2C(C(=O)Nc3ccc(Cl)c(C(=O)NCC(F)(F)F)c3)C2(Cl)Cl)cc1F (stereo not drawn) [F125, 2-Chloro-5-trans-(2,2-dichloro-3-(3,5-difluoro-4-methoxyphenyl)cyclopropane-1-carboxamido)-N-(2,2,2-trifluoroethyl)benzamide]	50 to 100%	50 to 100%	A (80-100)
O=C(NCCCl)c1cc(NC(=O)[C@H]2[C@H](c3cc(Cl)cc(Cl)c3)C2(Cl)Cl)ccc1Cl (relative stereo) [F51, trans-2-Chloro-N-(2-chloroethyl)-5-(2,2-dichloro-3-(3,5-dichlorophenyl)cyclopropane-1-carboxamido)benzamide]	50 to 100%	50 to 100%	B (More than 0-Less than 80)
O=C(NCCF)c1cc(NC(=O)[C@H]2[C@H](c3cc(Cl)cc(Cl)c3)C2(Cl)Cl)cc(Cl)c1Cl (relative stereo) [F92, trans-2,3-Dichloro-5-(2,2-dichloro-3-(3,5-dichlorophenyl)cyclopropane-1-carboxamido)-N-(2-fluoroethyl)benzamide]	50 to 100%	50 to 100%	A (80-100)
O=C(NCC(F)(F)F)c1cccc(NC(=O)[C@H]2[C@H](c3cc(Cl)cc(Cl)c3)C2(Cl)Cl)c1 (relative stereo) [F3, trans-3-(2,2-Dichloro-3-(3,5-dichlorophenyl)cyclopropane-1-carboxamido)-N-(2,2,2-trifluoroethyl)benzamide]	50 to 100%	50 to 100%	A (80-100)
CCNC(=O)c1cc(NC(=O)[C@H]2[C@H](c3cc(Cl)cc(Cl)c3)C2(Cl)Cl)cc(Cl)c1Cl (relative stereo) [F91, trans-2,3-Dichloro-5-(2,2-dichloro-3-(3,5-dichlorophenyl)cyclopropane-1-carboxamido)-N-ethylbenzamide]	50 to 100%	50 to 100%	A (80-100)
O=C(NCC(F)(F)F)c1cc(NC(=O)[C@H]2[C@H](c3cc(Cl)cc(Cl)c3)C2(Br)Br)ccc1Cl (relative stereo) [PF1, trans-2-Chloro-5-(2,2-dibromo-3-(3,5-dichlorophenyl)cyclopropane-1-carboxamido)-N-(2,2,2-trifluoroethyl)benzamide]	50 to 100%	50 to 100%	D (No activity noticed in this bioassay)
O=C(NCCC1CC1)c1cc(NC(=O)C2C(c3ccc(Cl)c(Cl)c3)C2(Cl)Cl)ccc1Cl (stereo not drawn) [F25, trans-N-2-Chloro-N-(2-cyclopropylethyl)-5-(2,2-dichloro-3-(3,4-dichlorophenyl)cyclopropane-1-carboxamido)benzamide]	50 to 100%	50 to 100%	A (80-100)
COCCNC(=O)c1cc(NC(=O)[C@H]2[C@H](c3cc(Cl)cc(Cl)c3)C2(Cl)Cl)ccc1Cl (relative stereo) [F53, trans-2-Chloro-5-(2,2-dichloro-3-(3,5-dichlorophenyl)cyclopropane-1-carboxamido)-N-(2-methoxyethyl)benzamide]	50 to 100%	50 to 100%	B (More than 0-Less than 80)
CCNC(=O)c1cc(NC(=O)[C@H]2[C@H](c3cc(Cl)cc(Cl)c3)C2(Cl)Cl)c(Cl)cc1Cl (relative stereo) [F98, trans-2,4-Dichloro-5-(2,2-dichloro-3-(3,5-dichlorophenyl)cyclopropane-1-carboxamido)-N-ethylbenzamide]	0 to 50%	0%	A (80-100)
O=C(NCCc1csc2ccccc12)c1cc(NC(=O)[C@H]2[C@H](c3cc(Cl)cc(Cl)c3)C2(Cl)Cl)ccc1Cl (relative stereo) [PF15, trans-N-(2-(Benzo[b]thiophen-3-yl)ethyl)-2-chloro-5-(2,2-dichloro-3-(3,5-dichlorophenyl)cyclopropane-1-carboxamido)benzamide]	50 to 100%	50 to 100%	A (80-100)
